Laboratory results reported in paper PMC6272295, “In Vitro Neuroprotective Activities of Compounds from Angelica shikokiana Makino” (Molecules, 2015).
Where two headings read alike, the source gives them in different places.

Assays:
neuro-2A cells [1] = assay: Protection against H2O2-induced neurotoxicity (MTT); format: cell-based, Mouse; conditions: for Protection against H2O2: summary Table 4; for neuroprotection against H2O2-induced neurotoxicity (in words): 6.25-100 µM, H2O2 150 µM
Method: (§1) Neuro-2A cell line was maintained in Eagle’s Minimum Essential medium supplemented with 10% fetal bovine serum, 1% of 100× antibiotic—antimitotic agents (containing penicillin and streptomycin) in a humid atmosphere of 5% (v/v) CO2 and 95% (v/v) air at 37 °C. Neuro-2A cells were plated in 96-well cell culture plates at a density of 3 × 10^4 cells/well for H2O2 and intracellular ROS assays and 2.5 × 10^3 cells/well for the Aβ25-35-assay.
(§2) Cell viability was determined by MTT reduction assay. Briefly, after treatment with isolated compounds, the media was replaced by fresh one after washing the cells with 100 µL PBS and 20 µL of MTT (5 mg/mL) was added to each well. After 4 h incubation at 37 °C, the state of cells was checked under microscope to confirm either cytotoxicity in H2O2 and Aβ25-35 wells or protection in positive controls and isolated compounds ones. The supernatants were aspirated carefully, and 150 µL of DMSO was added to each well to dissolve the dark blue formazan crystals. The absorbance was measured using a microplate reader at 570 nm.
H2O2 interacts with metals in the medium, producing highly cytotoxic hydroxyl radicals that induce neurotoxicity. So, active compounds are those that can scavenge free radicals and increase the cell viability. This assay was performed as previously described with slight modifications. Briefly, the concentration of H2O2 that decreased cell viability to about 50% was determined as follows: cells were cultured in a 96-well plate and after 24 h were further incubated with different concentrations of H2O2 (50, 100, 150, 200 µM) freshly prepared from 30% stock solution. After 24 h, cell viability was determined using the MTT reduction method. H2O2 at a concentration of 150 µM had the desired cytotoxicity and was used for the next step.

[2] = tested on: intracellular ROS in Neuro-2A cells; assay: Scavenging of intracellular reactive oxygen species (Bes-H2O2-AC, DFF fluorescence); format: cell-based, Mouse; conditions: for decrease of DFF fluorescence intensity (intracellular ROS): at 50 and 100 µM, H2O2 600 µM 30 min; for Intracellular ROS Scavenging: summary Table 4; on Intracellular ROS Scavenging: key: +: Weak activity; ++: Strong activity
Method: as §1
This assay was performed as previously described with some modifications. Briefly, Neuro-2A cells were seeded in 96-well Clear Fluorescence Black Plate (number 655090, Greiner Bio-one, Tokyo, Japan). Cells were treated with three different concentrations (25, 50, 100 µM) of the samples. After 2 h incubation, cells were subjected to oxidative stress using 600 µM of H2O2 for 30 min. The nucleus was stained by Hoechst 33342 (Dojindo, Kumamoto, Japan), and the amount of difluorofluorescein (DFF) released from the reaction of H2O2 and BES-H2O2-Ac was taken as an indication of the amount of intracellular H2O2 and ROS. Images of each well were acquired using an IN Cell Analyzer 1000 (GE Healthcare, Buckinghamshire, UK) using 360-nm (Hoechst 33342) and 480-nm (BES-H2O2-Ac) excitation filters and monitored through 460-nm and 535-nm emission filters, respectively. Developer software was used to analyze the images of Hoechst 33342 and BES-H2O2-Ac staining, and the resulting data were then applied to Spotfire Decision Site Client 8.2 software for visualizing the results.

[3] = Scavenging of hydroxyl radical, 2-deoxyribose degradation assay; conditions: for % Inhibition of deoxyribose degradation, Site-Specific / % Inhibition of deoxyribose degradation, Non Site-Specific: 300 µM; for % Inhibition of deoxyribose degradation, Non Site-Specific: 25 min, pH 7.4
Method: The inhibitory effect of bioactive compounds on deoxyribose degradation was determined by measuring the competition between deoxyribose and bioactive compounds for the hydroxyl radicals (^.OH) generated from the Fe^3+/ascorbate/EDTA/H2O2 system (referred to non-site-specific assay; the major activity measured is ^.OH scavenging) or an Fe^3+/ascorbate/H2O2 system (referred to as a site-specific assay; major activity measured is metal chelation). Both assays depend on the formation of a highly reactive hydroxyl radical, OH, by the interaction of iron ions with H2O2 through Fenton’s reaction. […] This assay was performed as previously described. Different concentrations of tested compounds were dissolved in 400 µL phosphate buffer (0.2 M, pH 7.4). Then, 50 µL of deoxyribose (60 mM), 50 µL of Na2EDTA (2 mM), 50 µL of FeCl3 (3.2 mM), 50 µL of H2O2 (60 mM) and 50 µL of ascorbic acid (2 mM) were added, and the total volume of the reaction mixture was adjusted to 1 mL with buffer. After water-bath incubation at 50 °C for 25 min, the reaction was terminated by 250 µL of trichloroacetic acid (10%, w/w). […] For site-specific hydroxyl-radical-scavenging activity, the reaction mixture was similar to the above method, except that EDTA was replaced by an equivalent volume of buffer.
IC50 values of isolated compounds in AChEI and scavenging of hydroxyl radical assays were calculated using Probit Analysis (SPSS Version 16.0 for Windows, SPSS Inc., Chicago, IL, USA) for five different concentrations in three independent experiments. Cell viability was expressed as a percentage of MTT reduction, assuming that the viability of cells treated with 1% DMSO as a negative control was 100%. […] All values are the mean ± SD of three independent experiments. Data were analyzed for statistical significance using one-way ANOVA, followed by Dunnet’s test as a post-hoc test with GraphPad Prism 5.0 software for Windows (Inc., San Diego, CA, USA).

neuro-2A cells [4] = assay: Protection against Aβ25-35-induced neurotoxicity (MTT); format: cell-based, Mouse; conditions: for neuroprotection against Aβ25-35 (in words): at the highest concentration (100 µM); for Protection against Aβ25-35: summary Table 4; on Protection against Aβ25-35: key: +: Weak activity; ++: Strong activity
Method: as §1, §2
Similarly, the concentration of Aβ25-35 that decreased cell viability to about 50% was determined. […] So, the cells were incubated with different concentrations of the isolated compounds (6.25, 12.5, 25, 50 and 100 µM) and EGCG as a positive control for 3 h followed by Aβ25-35 treatment for 72 h.

[5] = biological target: T1, AChE from Electrophorus electricus (Electrophorus electricus, UniProt O42275); assay: biochemical
T1 construct: purchased Sigma (St. Louis, MO, USA)
Method: AChEI activity was measured using Ellman’s method. AChE hydrolyzes the substrate ACTI into acetate and thiocholine. In a neutral and alkaline medium; thiocholine reacts with DTNB to give yellow colored 2-nitro-5-thiobenzoate, which can be detected spectrophotometrically at 405 nm. Briefly, in a 96-well plate, 25 µL of 15 mM ACTI, 125 µL of 3 mM DTNB in buffer B (50 mM Tris HCl, pH = 8, 0.1 M NaCl, 0.02 M MgCl2·6H2O), 50 µL of buffer A (50 mM Tris-HCl, PH 8, 0.1% BSA) and 25 µL of tested sample (dissolved in 25% DMSO) were mixed, and the absorbance was measured using a microplate reader (Biotek, Winooski, VT, USA) at 405 nm every 16 s ten times. Then, 25 µL of AChE (0.25 U/mL in buffer A) was added and the absorbance was measured ten times every 16 s. A solution of 25% DMSO was used as a negative control. Absorbance was plotted against time and enzyme activity was calculated from the slope of the line so obtained and expressed as a percentage compared to an assay using a buffer without any inhibitor. Fractions were tested at 400 µg/mL. To avoid any increase in absorbance due to the color of the compounds or spontaneous hydrolysis of the substrate, the absorbance before addition of the enzyme was subtracted from the absorbance after adding the enzyme.
IC50 values of isolated compounds in AChEI and scavenging of hydroxyl radical assays were calculated using Probit Analysis (SPSS Version 16.0 for Windows, SPSS Inc., Chicago, IL, USA) for five different concentrations in three independent experiments. Cell viability was expressed as a percentage of MTT reduction, assuming that the viability of cells treated with 1% DMSO as a negative control was 100%. Figures were built in Microsoft Excel 2010. All values are the mean ± SD of three independent experiments. Data were analyzed for statistical significance using one-way ANOVA, followed by Dunnet’s test as a post-hoc test with GraphPad Prism 5.0 software for Windows (Inc., San Diego, CA, USA).

[6] = Fe3+/ascorbate/EDTA/H2O2 system, read-out: IC50 hydroxyl radical scavenging, Non Site-Specific
[7] = Fe3+/ascorbate/H2O2 system without EDTA, read-out: IC50 hydroxyl radical scavenging, Site-Specific
[8] = summary Table 4 (values of the non site-specific assay), read-out: Hydroxyl Radical Scavenging/IC50
[9] = Ellman's method, read-out: IC50 in the AChEI assay
[10] = summary Table 4, read-out: AchEI IC50

T1 sequence (O42275 24-633): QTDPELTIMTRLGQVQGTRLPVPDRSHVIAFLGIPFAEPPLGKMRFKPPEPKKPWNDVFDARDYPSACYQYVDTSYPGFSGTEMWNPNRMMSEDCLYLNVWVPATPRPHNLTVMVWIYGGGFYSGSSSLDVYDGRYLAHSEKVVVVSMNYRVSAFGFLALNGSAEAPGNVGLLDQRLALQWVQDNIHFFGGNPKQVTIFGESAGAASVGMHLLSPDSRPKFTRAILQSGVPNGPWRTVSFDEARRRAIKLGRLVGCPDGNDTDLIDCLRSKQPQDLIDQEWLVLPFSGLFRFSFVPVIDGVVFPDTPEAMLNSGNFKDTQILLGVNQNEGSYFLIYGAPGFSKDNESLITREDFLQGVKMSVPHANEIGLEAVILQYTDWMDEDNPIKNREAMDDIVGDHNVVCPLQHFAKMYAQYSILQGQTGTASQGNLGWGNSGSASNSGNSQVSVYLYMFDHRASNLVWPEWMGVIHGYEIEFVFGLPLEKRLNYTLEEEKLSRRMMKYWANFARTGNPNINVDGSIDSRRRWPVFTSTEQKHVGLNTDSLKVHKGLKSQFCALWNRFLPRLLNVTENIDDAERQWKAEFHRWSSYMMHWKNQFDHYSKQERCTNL

In the case of `O=c1c(O)c(-c2ccc(O)c(O)c2)oc2cc(O)cc(O)c12` [Quercetin (12), quercetin], the “Protection against H2O2” value (neuro-2A cells [1]) is reported as “++”, the “decrease of DFF fluorescence intensity (intracellular ROS)” value (from here on “decrease of DFF fluorescence intensity”) [2] is reported as “significantly decrease the fluorescence intensity” and the “Intracellular ROS Scavenging” value [2] is reported as “++”. The IC50 [3, 6] was 672 ± 10.6 µM, the IC50 [3, 7] was 837 ± 21.6 µM and the IC50 [3, 8] was 672 ± 10.6 µM. For the same molecule, the “neuroprotection against Aβ25-35 (in words)” value (neuro-2A cells [4]) was “significant neuroprotection (p < 0.05)” and the “Protection against Aβ25-35” value (neuro-2A cells [4]) was “+”.

With `COC(=O)C1(O)CC(O)C(O)C(OC(=O)C=Cc2ccc(O)c(O)c2)C1` (centres unmarked) [Methyl chlorogenate (10), methyl chlorogenate] the IC50 [5, 9] was greater than 500 µM, the inhibition at 500 µM ([5]; at 500 µM) was 10% and the IC50 [5, 10] was greater than 500 µM. For the same molecule, the “Protection against H2O2” value (neuro-2A cells [1]) was “++”, the “decrease of DFF fluorescence intensity” value [2] was “significantly decrease the fluorescence intensity” and the “Intracellular ROS Scavenging” value [2] was “++”. It also gave an IC50 [3, 6] of 840 ± 12.4 µM, an IC50 [3, 7] of 920 ± 10.9 µM and an IC50 [3, 8] of 840 ± 12.4 µM.

With `Oc1cc(O)c2c(c1)OC(c1ccc(O)c(O)c1)C(O)C2` (centres unmarked) [Catechin (positive control), Catechin, reference compound] the IC50 [3, 6] was 473 ± 8.6 µM and the IC50 [3, 7] was 534 ± 19.2 µM.

For `Nc1ncnc2c1ncn2[C@@H]1O[C@H](CO)[C@@H](O)[C@H]1O` [Adenosine (15), adenosine], the “IC50 in the AChEI assay” value ([5]; Ellman's method) was “inactive” and the IC50 [5, 10] was greater than 500 µM.

With “Aβ25-35: amyloid β peptide fragment used to induce neurotoxicity (GSNKGAIIGLM; Amyloid-beta protein 42; UniProt P05067 696-706, looked up, fragment) [reference compound]” the “cytotoxicity of Aβ25-35” value (neuro-2A cells [4]; 25 µM, 72 h incubation) was 55% ± 4.6%.

With `CCC(CCC(C)C1CCC2C3CC=C4CC(OC5OC(CO)C(O)C(O)C5O)CCC4(C)C3CCC12C)C(C)C` (stereo not drawn) [β-Sitosterol-3-O-glucoside (5), β-sitosterol-3-O-glucoside] the “IC50 in the AChEI assay” value ([5]; Ellman's method) was “inactive” and the IC50 [5, 10] was greater than 500 µM.

For `CC1(C)CC[C@]2(C)CC[C@]3(C)C(=CC[C@@H]4[C@@]5(C)CC[C@H](O)C(C)(C)[C@@H]5CC[C@]43C)[C@@H]2C1` [β-Amyrin (2), β-amyrin], the “IC50 in the AChEI assay” value ([5]; Ellman's method) was “inactive”, the IC50 [5, 10] was greater than 500 µM and the “neuroprotection against H2O2-induced neurotoxicity (in words)” value (neuro-2A cells [1]) was “did not show significant neuroprotection”. For the same molecule, the “% Inhibition of deoxyribose degradation, Site-Specific” value [3] was “-” and the “% Inhibition of deoxyribose degradation, Non Site-Specific” value [3] was “-”.

With `O=C(/C=C/c1ccc(O)c(O)c1)O[C@@H]1C[C@](O)(C(=O)O)C[C@@H](O)[C@H]1O` [Chlorogenic acid (11), chlorogenic acid] the “IC50 in the AChEI assay” value ([5]; Ellman's method) was “inactive”, the IC50 [5, 10] was greater than 500 µM and the “Protection against H2O2” value (neuro-2A cells [1]) was “++”. For the same molecule, the “decrease of DFF fluorescence intensity” value [2] was “significantly decrease the fluorescence intensity” and the “Intracellular ROS Scavenging” value [2] was “++”.

Molecule `O=c1cc(-c2ccc(O)c(O)c2)oc2cc(O)cc(O)c12` [Luteolin (9), luteolin] has an IC50 [5, 9] greater than 500 µM, an inhibition at 250 µM ([5]; at 250 µM) of 30% and an IC50 [5, 10] greater than 500 µM. The “Protection against H2O2” value (neuro-2A cells [1]) was “++”, the “decrease of DFF fluorescence intensity” value [2] was “significantly decrease the fluorescence intensity” and the “Intracellular ROS Scavenging” value [2] was “++”. It also gave an IC50 [3, 6] of 753 ± 11.1 µM, an IC50 [3, 7] of 980 ± 15.8 µM and an IC50 [3, 8] of 753 ± 11.1 µM. The “neuroprotection against Aβ25-35 (in words)” value (neuro-2A cells [4]) was “significant neuroprotection (p < 0.05)” and the “Protection against Aβ25-35” value (neuro-2A cells [4]) was “+”.

With `CC1(C)CCC2(C)CCC3(C)C4CC=C5C(CCC(O)C5(C)C)C4(C)CCC3(C)C2C1` (stereo not drawn) [α-Glutinol (1), α-glutinol] the “IC50 in the AChEI assay” value ([5]; Ellman's method) was “inactive”, the IC50 [5, 10] was greater than 500 µM and the “neuroprotection against H2O2-induced neurotoxicity (in words)” value (neuro-2A cells [1]) was “did not show significant neuroprotection”.

With `O=Cc1ccc(CO)o1` [5-(Hydroxymethyl)-2-furaldehyde (7), 5-(hydroxymethyl)-2-furaldehyde] the “IC50 in the AChEI assay” value ([5]; Ellman's method) was “inactive”, the IC50 [5, 10] was greater than 500 µM and the “% Inhibition of deoxyribose degradation, Site-Specific” value [3] was “-”. The “% Inhibition of deoxyribose degradation, Non Site-Specific” value [3] was 4 ± 0.3%.

For `OO` [H2O2, reference compound], the “cytotoxicity of H2O2” value (neuro-2A cells [1]; 150 µM H2O2, 24 h, MTT) was 48.2% ± 1.8%.
